In PMC7280082 (Acta Pharmaceutica Sinica. B, 2019):

Legend:
[1] = tested on: WT HIV-1 (IIIB); test: microbe, parasite or virus in culture; type: cell-based; details: for EC50: Human immunodeficiency virus 1, IIIB, MT4, read-out: EC50 IIIB; for SI IIIB: ratio of CC50/EC50
[2] = tested on: HIV-2 strain (ROD); test: Anti-HIV-2; type: cell-based; details: for EC50: Human immunodeficiency virus 2, MT4, read-out: EC50 ROD; for SI ROD: ratio of CC50/EC50
[3] = tested on: HIV-1 L100I mutant strain; test: microbe, parasite or virus in culture; type: cell-based; details: for SI L100I: CC50/EC50; for EC50: Human immunodeficiency virus 1, MT4, read-out: EC50 L100I; for RF L100I: ratio of EC50 (resistant viral strain)/EC50 (wild-type viral strain)
[4] = tested on: HIV-1 K103N mutant strain; test: microbe, parasite or virus in culture; type: cell-based; details: for SI K103N: CC50/EC50; for EC50: Human immunodeficiency virus 1, MT4, read-out: EC50 K103N; for RF K103N: ratio of EC50 (resistant viral strain)/EC50 (wild-type viral strain)
[5] = tested on: HIV-1 Y181C mutant strain; test: microbe, parasite or virus in culture; type: cell-based; details: for SI Y181C: CC50/EC50; for EC50: Human immunodeficiency virus 1, MT4, read-out: EC50 Y181C; for RF Y181C: ratio of EC50 (resistant viral strain)/EC50 (wild-type viral strain)
[6] = tested on: HIV-1 Y188L mutant strain; test: microbe, parasite or virus in culture; type: cell-based; details: for SI Y188L: CC50/EC50; for EC50: Human immunodeficiency virus 1, MT4, read-out: EC50 Y188L; for RF Y188L: ratio of EC50 (resistant viral strain)/EC50 (wild-type viral strain)
[7] = tested on: HIV-1 E138K mutant strain; test: microbe, parasite or virus in culture; type: cell-based; details: for SI E138K: CC50/EC50; for EC50: Human immunodeficiency virus 1, MT4, read-out: EC50 E138K; for RF E138K: ratio of EC50 (resistant viral strain)/EC50 (wild-type viral strain)
[8] = tested on: HIV-1 F227L + V106A double-mutant strain; test: microbe, parasite or virus in culture; type: cell-based; details: for SI F227L + V106A: CC50/EC50; for EC50: Human immunodeficiency virus 1, MT4, read-out: EC50 F227L + V106A; for RF F227L + V106A: ratio of EC50 (resistant viral strain)/EC50 (wild-type viral strain)
[9] = tested on: HIV-1 RES056 (K103N + Y181C) double-mutant strain; test: microbe, parasite or virus in culture; type: cell-based; details: for SI RES056: CC50/EC50; for EC50: Human immunodeficiency virus 1, MT4, read-out: EC50 RES056; for RF RES056: ratio of EC50 (resistant viral strain)/EC50 (wild-type viral strain)
[10] = target: WT HIV-1 RT (Human immunodeficiency virus type 1 group M subtype B, UniProt P03366); test: Recombinant HIV-1 RT inhibitory assay; type: biochemical
[11] = Cytotoxicity in mock-infected MT-4 cell cultures, MTT method; details: human, mock-infected MT-4 cells

Structure (SMILES) | EC50 [1] [nM] | SI IIIB [1] | EC50 [2] [µM] | SI ROD [2] | SI L100I [3] | EC50 [3] [nM] | RF L100I [3] | SI K103N [4] | EC50 [4] [nM] | RF K103N [4] | SI Y181C [5] | EC50 [5] [nM] | RF Y181C [5] | SI Y188L [6] | EC50 [6] [nM] | RF Y188L [6] | SI E138K [7] | EC50 [7] [nM] | RF E138K [7] | SI F227L + V106A [8] | other results
Cc1cc(-c2ccsc2)cc(C)c1Oc1nc(NC2CCN(Cc3ccc(S(N)(=O)=O)cc3)CC2)nc2ccsc12 [Compound 17, 4-((4-((4-(2,6-Dimethyl-4-(thiophen-3-yl)phenoxy)thieno[3,2-d]pyrimidin-2-yl)amino)piperidin-1-yl)methyl)benzenesulfonamide] | 31.6 ± 17.7 | 489 | 4.8 ± 0.916 | 3 | 203 | 76 ± 17.2 | 2.4 | 865 | 17.9 ± 1.51 | 0.6 | 245 | 63.2 ± 16.1 | 2.0 | 249 | 62 ± 5.83 | 2.0 | 295 | 52.5 ± 11.3 | 1.7 | 272 | EC50 [8]: 56.8 ± 3.85 nM; RF F227L + V106A [8]: 1.8; SI RES056 [9]: 17; EC50 [9]: 932 ± 88.4 nM; RF RES056 [9]: 29.5; IC50 [10]: 167 ± 14 nM; CC50 at 5 days [11]: 15.4 ± 5.86 µM
Cc1cc(-c2ccc(C#N)cc2)cc(C)c1Oc1nc(NC2CCN(Cc3ccc(S(N)(=O)=O)cc3)CC2)nc2ccsc12 [Compound 25, 4-((4-((4-((4′-Cyano-3,5-dimethyl-[1,1′-biphenyl]-4-yl)oxy)thieno[3,2-d]pyrimidin-2-yl)amino)piperidin-1-yl)methyl)benzenesulfonamide] | 17 ± 5.78 | 312 | 5.56 ± 0.0423 | 1 | 194 | 27.4 ± 4.41 | 1.6 | 403 | 13.2 ± 0.33 | 0.8 | 173 | 30.8 ± 0.11 | 1.8 | 99 | 53.6 ± 3.5 | 3.2 | 120 | 44.4 ± 3.62 | 2.6 | 89 | EC50 [8]: 59.9 ± 10.2 nM; RF F227L + V106A [8]: 3.5; SI RES056 [9]: 51; EC50 [9]: 103 ± 3.39 nM; RF RES056 [9]: 6.1; IC50 [10]: 288 ± 26 nM; CC50 at 5 days [11]: 5.31 ± 2.56 µM
Cc1cc(-c2ccccc2)cc(C)c1Oc1nc(NC2CCN(Cc3ccc(C(N)=O)cc3)CC2)nc2ccsc12 [Compound 20, 4-((4-((4-((3,5-Dimethyl-[1,1′-biphenyl]-4-yl)oxy)thieno[3,2-d]pyrimidin-2-yl)amino)piperidin-1-yl)methyl)benzamide] | 47.7 ± 11.8 | 367 | 3.84 ± 1.77 | 5 | 42 | 416 ± 87.9 | 8.7 | 171 | 102 ± 2.5 | 2.1 | 89 | 196 ± 54.6 | 4.1 | 85 | 205 ± 13.6 | 4.3 | 120 | 146 ± 12.5 | 3.1 | 44 | EC50 [8]: 395 ± 5.14 nM; RF F227L + V106A [8]: 8.3; SI RES056 [9]: 10; EC50 [9]: 1733 ± 5.51 nM; RF RES056 [9]: 36.3; IC50 [10]: 161 ± 14 nM; CC50 at 5 days [11]: 17.5 ± 6.18 µM
Cc1cc(-c2cccc(C#N)c2)cc(C)c1Oc1nc(NC2CCN(Cc3ccc(C(N)=O)cc3)CC2)nc2ccsc12 [Compound 28, 4-((4-((4-((3′-Cyano-3,5-dimethyl-[1,1′-biphenyl]-4-yl)oxy)thieno[3,2-d]pyrimidin-2-yl)amino)piperidin-1-yl)methyl)benzamide] | 23.4 ± 16.9 | 178 | > 4.17 | <1 | 83 | 50.2 ± 10.3 | 2.1 | 208 | 20 ± 1.2 | 0.9 | 81 | 51.6 ± 4.32 | 2.2 | 57 | 73.4 ± 5.16 | 3.1 | 99 | 41.9 ± 4.56 | 1.8 | 26 | EC50 [8]: 157 ± 6.6 nM; RF F227L + V106A [8]: 6.7; SI RES056 [9]: 10; EC50 [9]: 402 ± 41.9 nM; RF RES056 [9]: 17.2; IC50 [10]: 202 ± 20 nM; CC50 at 5 days [11]: 4.16 ± 1.75 µM
